Values of other authors in patent publication EP3653214A1, “IMPROVED DOSAGE REGIMEN FOR URSODEOXYCHOLIC ACID BASED ON ALKALINE PHOSPHATASE LEVELS IN THE TREATMENT OF CHRONIC CHOLESTATIC LIVER DISEASES” (Disphar International B.V., priority 2018, dated 2020).

Conditions: in vivo

For `C[C@H](CCC(=O)O)[C@H]1CC[C@H]2[C@@H]3[C@@H](O)C[C@@H]4C[C@H](O)CC[C@]4(C)[C@H]3CC[C@]12C` [UDCA, ursodeoxycholic acid], the tolerability is given as “generally well tolerated”.
